Measured values: ChEMBL document CHEMBL1148791, “High-throughput screening of drug-brain tissue binding and in silico prediction for assessment of central nervous system drug delivery” (J Med Chem, 2007)

Experiments:
physchem [1] = assay: physchem
Description: Acid dissociation constant, pKa of the compound

physchem [2] = conditions: buffer, pH 7.4
[3] = Fraction unbound ligand in rat brown fat tissue after 20 hrs; assay type: ADME, tissue-based, Adipose tissue
[4] = Fraction unbound ligand in rat brain after 20 hrs; assay type: ADME, tissue-based; conditions: brain tissue
[5] = Fraction unbound ligand in rat lung after 20 hrs; assay type: ADME, tissue-based; conditions: lung tissue
[6] = Fraction unbound ligand in rat adrenal gland after 20 hrs; assay type: ADME, tissue-based; conditions: adrenal gland tissue
[7] = buffer, pH 7.4

| Compound | pKa (physchem [1]) | logD (physchem [2]) | other results |
| --- | --- | --- | --- |
| Cc1ccc(-c2nc3ccc(C)cn3c2CC(=O)N(C)C)cc1 [ZOLPIDEM] | 6.02 | 2.35 |  |
| Fc1ccc([C@@H]2CCNC[C@H]2COc2ccc3c(c2)OCO3)cc1 [PAROXETINE] | 10.1 | 2.27 |  |
| COc1ccc(C(CN(C)C)C2(O)CCCCC2)cc1 (stereo unspecified) [VENLAFAXINE] |  | 0.88 |  |
| CC(C)NCC(O)COc1cccc2ccccc12 (stereo unspecified) [PROPRANOLOL] |  |  | fraction unbound at 20 h [3]: 0.097; fraction unbound at 20 h [4]: 0.021; fraction unbound at 20 h [5]: 0.053; fraction unbound at 20 h [6]: 0.01 |
| NC(=O)N1c2ccccc2C=Cc2ccccc21 [CARBAMAZEPINE] |  | 1.77 |  |
| CNCCC=C1c2ccccc2CCc2ccccc21 [NORTRIPTYLINE] | 10.4 | 2.23 |  |
| COCCCC/C(=N\OCCN)c1ccc(C(F)(F)F)cc1 [FLUVOXAMINE] | 9.4 |  |  |
| CN(C)CCC=C1c2ccccc2C=Cc2ccccc21 [CYCLOBENZAPRINE] | 9.69 | 2.92 |  |
| COc1ccc2c3c1O[C@H]1C(=O)CC[C@H]4[C@@H](C2)N(C)CC[C@]314 [HYDROCODONE] | 8.43 | 3.38 |  |
| O=C(CCCN1CCC(O)(c2ccc(Cl)cc2)CC1)c1ccc(F)cc1 [HALOPERIDOL] |  | 0.18 |  |
| O=c1n(CCCN2CCN(c3cccc(Cl)c3)CC2)nc2ccccn12 [TRAZODONE] | 6.73 | 2.97 |  |
| CN1CCN(C2=Nc3cc(Cl)ccc3Nc3ccccc32)CC1 [CLOZAPINE] |  | 3.46 |  |
| Cc1nc2n(c(=O)c1CCN1CCC(c3noc4cc(F)ccc34)CC1)CCCC2 [RISPERIDONE] |  | 1.66 |  |
| CCCC(C)(COC(N)=O)COC(=O)NC(C)C (stereo unspecified) [CARISOPRODOL] |  | 2.4 |  |
| O=C1CC2(CCCC2)CC(=O)N1CCCCN1CCN(c2ncccn2)CC1 [BUSPIRONE] | 7.8 |  |  |
| Cc1ncc2n1-c1ccc(Cl)cc1C(c1ccccc1F)=NC2 [MIDAZOLAM] | 5.44 | 2.5 |  |
| OCCOCCN1CCN(C(c2ccccc2)c2ccc(Cl)cc2)CC1 (stereo unspecified) [HYDROXYZINE] | 7.75 |  | Log D [7]: 0.18 |
| COC(=O)[C@H](c1ccccc1)C1CCCCN1 (stereo partly specified) [METHYLPHENIDATE] | 9.24 | -0.15 |  |
| CN(C)CCCN1c2ccccc2Sc2ccc(Cl)cc21 [CHLORPROMAZINE] |  | 3.7 |  |
